Assay results from US10251944B2, “Cancer vaccines” (Pfizer Inc., priority 2016, dated 2019).
Where “and” joins values, the source holds several entries; their conditions need not be identical. Identical values can stand only once.

Test system: TUBO tumor cells
Experiment: Subcutaneous TUBO tumor growth in BALB-neuT mice
Type: in vivo
Design: key to Subcutaneous tumor volumes: tumor volume in mm3
Settings: for Subcutaneous tumor volumes: BALB-neuT mice, individual animals, with control vaccine and isotype control monoclonal antibody, listed as IDO1 inhibitor, in mm³
Protocol: BALB-neuT mice were implanted on study day 0 with TUBO tumor cells by subcutaneous injection. Mice were dosed with 200 mg/Kg of 3-(5-fluoro-1H-indol-3-yl)pyrrolidine-2,5-dione (IDO1 inhibitor) or vehicle twice daily from study day 7 using oral gavage. Comparator groups were sham dosed with vehicle from study day 7 onwards. Appropriated mice were immunized on study day 10 with 1e10 Viral Particles of an adenovirus vector engineered to express rat HER2 (rHER2) (rHER2 vaccine) or vector lacking the rHER2 transgene (control vaccine), by intramuscular injection. Subsequently, 250 ug of an anti-CTLA4 antibody (murine monoclonal antibody to CTLA-4, clone 9D9) or an IgG2 isotype control monoclonal antibody was injected subcutaneously in close proximity to lymph nodes draining the site of adenovirus vector injection. Every two weeks thereafter, mice were immunized with 100 ug of a DNA plasmid encoding rHER2 (rHER2 vaccine) or a DNA plasmid lacking the rHER2 transgene (control vaccine) by electroporation. Subsequent to the DNA plasmid administration, 250 ug of the anti-CTLA4 antibody was injected subcutaneously in close proximity to lymph nodes draining the site of DNA plasmid injection. To track tumor progression, subcutaneous tumor volumes were measured twice a week throughout the study. Animals with subcutaneous tumor volumes that reached 2000 mm3 or displaying irreversible signs of disease were euthanized.

O=C1CC(c2c[nH]c3ccc(F)cc23)C(=O)N1 (stereo not drawn) [001 inhibitor, 3-(5-fluoro-1H-indol-3-yl)pyrrolidine-2,5-dione]
tumor growth rates (subcutaneous tumor volumes), in words (BALB-neuT mice with TUBO tumors, IDO1 inhibitor 200 mg/Kg twice daily oral, anti-CTLA4 250 ug s.c., rHER2 adenovirus then DNA): No effect on tumor growth rates | Subcutaneous tumor volumes (Study Day 18): 87.17 and 43.33 and 77.07 and 67.44 and 136.82 and 73.84 and 62.25 and 84.25 and 115.90 and 47.77 and 40.28 and 81.38 and 130.43 | Subcutaneous tumor volumes (Study Day 21): 91.03 and 64.93 and 113.76 and 113.10 and 163.91 and 75.81 and 78.22 and 89.04 and 182.85 and 58.23 and 54.88 and 135.90 and 127.97 | Subcutaneous tumor volumes (Study Day 24): 161.46 and 92.35 and 169.45 and 127.09 and 198.49 and 100.08 and 101.79 and 140.26 and 284.27 and 88.35 and 55.22 and 110.30 and 155.81 | Subcutaneous tumor volumes (Study Day 27): 163.11 and 110.42 and 171.37 and 129.44 and 240.05 and 125.82 and 123.19 and 186.49 and 361.01 and 112.48 and 80.13 and 147.33 and 241.15 | Subcutaneous tumor volumes (Study Day 32): 252.04 and 173.28 and 301.94 and 202.21 and 337.79 and 251.57 and 194.14 and 275.98 and 541.91 and 153.38 and 110.90 and 184.76 and 321.37 | Subcutaneous tumor volumes (Study Day 35): 324.53 and 260.28 and 306.58 and 377.96 and 401.70 and 262.56 and 246.60 and 364.82 and 598.92 and 209.97 and 141.15 and 244.33 and 521.30 | Subcutaneous tumor volumes (Study Day 39): 414.72 and 343.13 and 512.15 and 430.30 and 596.09 and 434.13 and 389.39 and 471.60 and 671.98 and 338.06 and 192.15 and 328.32 and 572.30 | Subcutaneous tumor volumes (Study Day 42): 603.00 and 408.33 and 574.86 and 574.25 and 680.54 and 551.64 and 463.99 and 601.50 and 820.44
